Patent publication US6407085B1, “Medicament containing betasitosterol and/or phytosterol/betasitosterol mixtures” (priority 1997, dated 2002)

What was measured:
[1] = dissolving in oils, paraffins, stearates, Vaseline or glycerin with heat; format: physicochemical; settings: for appearance in glycerin after cooling: after heating in glycerin; for appearance in oil after cooling: after heating in oil
Method: The solubility of phytosterol/betasitosterol mixtures and betasitosterol metabolites can be accelerated and improved with respect to yield if the effective ingredients are treated in oil, paraffins, stearates, or Vaseline with the application of heat at temperatures of around 70° C. to 160° C., advantageously at 120° C. to 140° C., advantageously over a period of 30 minutes to 3 hours.
If betasitosterol or sodium desoxycholate is heated in diverse natural and mineral oils, paraffins, commercially-available hypoallergenic stearate mixtures, or Vaseline (2 g substance in 100 ml) to 120° C., both substances dissolve fully within 90 minutes. Upon further heating to 150° C. (at 140° C., betasitosterol becomes liquid), betasitosterol dissolves up to around 15% in stearate mixtures, paraffins, and plant and mineral oils. […] In like manner, betasitosterol and sodium desoxycholate can be introduced into glycerin.

[2] = solubility in oils, chloroform and water at room temperature
[3] = oral tolerability of betasitosterol esters; format: in vivo; settings: taken orally
psoriasis = assay: salve applied to the skin in psoriasis; format: in vivo
Method: If phytosterol/betasitosterol mixtures, when they are dissolved in the above described form in oil, are stirred into a salve base alone or in a mixture with sodium desoxycholate in aqueous solution in a concentration of 0.5 to 2.0% and the salve base is applied to the skin, the itching of neurodermatitis usually is eased after only 2 to 5 minutes. Inflammation processes with redness and swelling are alleviated after 24 to 48 hours. Thus a histamine antagonistic as well as a cortisone-like effect is determined, but without the side effects of the hormone. In the case of psoriasis, the formation of scales is often reduced even in extreme cases only 24 hours after the first application, particularly with the use of the metabolite desoxycholic acid. Here again the use of such substances is completely unproblematic in contrast to a salve with a component of vitamin-D-like structure, which as a result of the resorption of the vitamin-D-like molecule can be applied only to a limited extent because of the danger of overdosing and thus the influencing of calcium metabolism.

[4] = cited from earlier work
[5] = in vivo; cited from earlier work
[6] = chloroform; cited from earlier work

## sodium desoxycholate
[1]
  appearance in glycerin after cooling: remains clear
  appearance in oil after cooling: remains clear
[1]; heated to 120° C.
  dissolving in glycerin: dissolve completely clear
[2]
  water solubility: relatively water soluble

## CC[C@H](CC[C@@H](C)[C@H]1CC[C@H]2[C@@H]3CC=C4C[C@@H](OC(=O)[C@H](O)[C@@H](O)[C@H](O)[C@H](O)CO)CC[C@]4(C)[C@H]3CC[C@]12C)C(C)C [betasitosterol gluconic acid ester]
[3]
  tolerability: free of side effects and very well tolerated

## desoxycholic acid
[1]
  appearance in glycerin after cooling: white pasty mass
[1]; heated to 120° C.
  appearance with safflower oil: cloudy-opalescent emulsion
psoriasis
  time after first application until formation of scales is reduced: 24 h

## CC[C@H](CC[C@@H](C)[C@H]1CC[C@H]2[C@@H]3CC=C4C[C@@H](O)CC[C@]4(C)[C@H]3CC[C@]12C)C(C)C [betasitosterol]
[1]
  appearance in glycerin after cooling: slightly opalescent
  appearance in oil after cooling: slightly opalescent
[1]; heated to 120° C.
  dissolving in glycerin: dissolve completely clear
[1]; heating to 150° C., stearate mixtures, paraffins, plant and mineral oils
  amount dissolved: around 15%
[4]; healthy subjects
  resorption quotient: around 5%
[4]; oral administration of up to 24 g per day
  blood count: 10 mg
[5]
  portion metabolized into cholic acid and chenodesoxycholic acid: around 20%
[6]
  solubility (D'ans-Lax): soluble in chloroform
[2]
  solubility in oil on addition of sodium desoxycholate: further improved
[2]; linseed oil, safflower oil, neutral oil, standing longer than 24 h at room temperature
  solubility in oil at room temperature: dissolves in sufficient quantity
